“Also recorded” adds a separate entry of the source. Residues, ends and D or L forms follow the SMILES beside them. *: point of attachment. Cbz = O=C(OCc1ccccc1)*; CH2F = FC*
Experiments:
[1] = system: pregnant mice injected with LPS; assay: LPS-induced pup mortality/abortion in pregnant Cox2/luciferase mice (bioluminescence imaging); assay type: in vivo, mouse; conditions: for pup (fetal) mortality / abortion after LPS: 0.25 mg ip 5-30 minutes prior to each ip LPS injection, 14 day pregnant mouse
Description: Therefore, the use of caspase inhibitors confers a protective effect not seen by merely controlling infection through the use of antibiotics. As one of skill in the art will realize that the murine model can provide a guide to expected outcomes in human pregnancy, it is believed that caspase inhibitor treatment will be effective in the treatment of pregnant women with intrauterine infection so as to prevent preterm delivery and improve pregnancy outcome. This is a novel mammalian model for the improvement of pregnancy outcome.
Our experimental test method is based on the use of a mouse model in which inflammation (as assessed by Cox2 promoter activation) is detected optically by using a transgenic animal in which activation of the promoter results in synthesis of luciferase. When luciferin is subsequently injected, the presence of luciferase is detected by a sensitive camera as the production of light. The detected inflammation is indicative of the infection caused by the LPS injection.
In FIG. 1, pregnant mice are imaged. The mice were first mated with Cox2/luciferase males so that the pups would be positive for the Cox2/luciferase construct. The mice were treated with LPS which is normally produced by bacteria and results in inflammation. We injected pregnant mice with 0.1 microgram/ml LPS intraperitoneally (ip) for the control mice 0-24 hours (using a 2, 4, 6, 12 hour time course) prior to the imaging. The resulting inflammation causes the upregulation of Cox2 promoter in the pups resulting in the synthesis of luciferase. […] The treatment mice were given 0.25 mg ip of the pancaspase inhibitor 5-30 minutes prior to each LPS injection.
In the case of the control mouse (right-hand side of FIG. 1) inflammation results in the abortion of the pups (no bioluminescence detected). […] Thus, in the case of inflammation resulting from infection (as is common in cases of preterm delivery in humans) effective treatment includes antibiotic to reduce or eliminate the infection and caspase inhibitor to prevent preterm delivery.

[2] = system: pregnant CD1 mice injected with HK-GBS; assay: HK-GBS-induced preterm delivery in day 14.5 pregnant CD1 mice; assay type: in vivo, mouse
Protocol: To assess whether caspase inhibition prevented HK-GBS-induced preterm delivery, unanesthetized day 14.5 pregnant CD1 mice (Harlan Laboratories, Madison, Wis.), which breed more effectively than inbred C57BL/6J mice, were pre-treated intraperitoneally with PBS, DMSO or the pancaspase inhibitor Z-VAD-FMK (10 mg/kg) 30 minutes prior to intraperitoneal injection with either 10^9 HK-GBS bacteria or medium. There were no differences in delivery outcomes following intraperitoneal injection with GBS whether or not animals were pretreated with either PBS or DMSO (diluents for the caspase inhibitor). Therefore these separate control pre-treatments are combined for the analyses.
Chi-square analysis was done to assess the effect of Z-VAD-FMK pretreatment on HK-GBS-induced preterm delivery.
Based upon that observation, we hypothesized that the generalized inhibition of caspases would prevent microbial antigen-induced preterm delivery in the mouse pregnancy model. In order to test this hypothesis we pre-treated day 14.5 pregnant CD1 mice either with Z-VAD-FMK (10 mg/kg dissolved in DMSO/PBS) or with medium intraperitoneally 30 minutes prior to intraperitoneal HK-GBS injection.

[3] = system: primary human trophoblasts and fibroblasts; conditions: in vitro pretreatment; Equils et al., 2006; cited from earlier work

With `COC(=O)C[C@H](NC(=O)[C@H](C)NC(=O)[C@@H](NC(=O)OCc1ccccc1)C(C)C)C(=O)CF` [Z-VAD-FMK, carbobenzoxy-valyl-alanyl-aspartyl-[O-methyl]-fluoromethylketone] (Cbz-Val-Ala-Asp(OMe)-CH2F) the “pup (fetal) mortality / abortion after LPS” value [1] was “prevents pup mortality; also recorded: the pups do not abort”, the “pup (fetal) mortality / abortion after LPS” value ([1]; listed as Z-VAD FMK) was “reduces fetal mortality” and the “pup (fetal) mortality / abortion after LPS” value ([1]; listed as pancaspase inhibitor) was “maintenance of pregnancy”. For the same compound, the “inflammation as assessed by Cox2 promoter activation (bioluminescence)” value ([1]; 0.25 mg ip prior to ip LPS injection) was “continued inflammation; also recorded: does not prevent inflammation”, the “Delivery <18 hr (%)” value ([2]; 10 mg/kg ip 30 minutes prior to ip 10^9 HK-GBS, 1 of n = 6, GBS alone 12 (86%) of n = 14, p value 0.0072) was 1 (17%) and the “Delivery 18-24 hrs (%)” value ([2]; 10 mg/kg ip 30 minutes prior to ip 10^9 HK-GBS, 2 of n = 6, GBS alone 0 of n = 14, p value 0.079) was 2 (33%). The “Preterm Delivery (<24 hours)” value ([2]; 10 mg/kg ip 30 minutes prior to ip 10^9 HK-GBS, 3 of n = 6, GBS alone 12 (86%) of n = 14, p value 0.13) was 3 (50%), the “effect on HK-GBS-induced preterm delivery” value ([2]; ip pre-treatment 10 mg/kg, ip HK-GBS) was “delayed i.p. HK-GBS-induced preterm delivery; also recorded: significantly delayed preterm delivery at 18 hours” and the cHSP60-induced apoptosis [3] was “prevented Chlamydia heat shock protein (cHSP60)-induced apoptosis”.

Reference: patent publication US8828950B2, “Caspase inhibitors in the treatment of infection-associated preterm delivery” (Cedars-Sinai Medical Center, priority 2007, dated 2014)
